# Columns and labels:
# microtubules = settings: compared with docetaxel; cited from earlier work
# [1] = Particle size of unmilled (conventional, non-nanoparticulate) docetaxel; format: physicochemical
# Excerpt: Unmilled trihydrate docetaxel has a mean particle size of 61,610 nm, with a D50 of 51,060 nm and a D90 of 119,690 nm.
# [2] = system: COX-2 expression in human monocytes; settings: human monocytes / human cells; cited from earlier work
# [3] = cited from earlier work
# [4] = system: plasma proteins, primarily albumin, α1-acid glycoproteins, and lipoproteins; settings: in vitro; cited from earlier work
# [5] = cited from earlier work; remark: listed apart in the source
# mice = settings: mouse, in vivo, iv
# Method: The purpose of this experiment was to determine the maximum tolerated dose of a nanoparticulate docetaxel formulation.
# To evaluate and characterize the acute toxicity of nanoparticulate docetaxel formulations, two nanoparticulate dispersions were utilized.
# Both nanoparticulate docetaxel formulations were administered intravenously at various doses to mice.
# The commercially available non-nanoparticulate docetaxel product, TAXOTERE®, was also tested in parallel with the nanoparticulate docetaxel formulations.
# [6] = system: COX-2 expression in murine cells; settings: cited from earlier work
# [7] = phase I trial; cited from earlier work
# [8] = IV administration of a 100-mg/m^2 dose, SD=0.8
# [9] = intravenous doses of 70 mg/m^2 to 115 mg/m^2, 3-compartment model, TAXOTERE®
compound,measurement,setting,value
CC(=O)OC12COC1CC(O)C1(C)C(=O)C(O)C3=C(C)C(OC(=O)C(O)C(NC(=O)OC(C)(C)C)c4ccccc4)CC(O)(C(OC(=O)C4CCCCC4)C21)C3(C)C (stereo not drawn) [2-(hexahydro)docetaxel],inhibitory activity for microtubule disassembly,microtubules,strong inhibitory activity for microtubule disassembly equivalent to docetaxel
CC(=O)OC12COC1CC(O)C1(C)C(=O)C(O)C3=C(C)C(OC(=O)C(O)C(NC(=O)OC(C)(C)C)C4CCCCC4)CC(O)(C(OC(=O)c4ccccc4)C21)C3(C)C (stereo not drawn) [3′-dephenyl-3′-cyclohexyldocetaxel],inhibitory activity for microtubule disassembly,microtubules,strong inhibitory activity for microtubule disassembly equivalent to docetaxel
"CC(=O)O[C@@]12CO[C@@H]1C[C@H](O)[C@@]1(C)C(=O)[C@H](O)C3=C(C)[C@@H](OC(=O)[C@H](O)[C@@H](NC(=O)OC(C)(C)C)c4ccccc4)C[C@@](O)([C@@H](OC(=O)c4ccccc4)[C@H]21)C3(C)C [Unmilled trihydrate docetaxel, docetaxel]",D50,[1],"51,060 nm"
same,D90,[1],"119,690 nm"
same,mean particle size,[1],"61,610 nm"
"CC(=O)O[C@@]12CO[C@@H]1C[C@H](O)[C@@]1(C)C(=O)[C@H](O)C3=C(C)[C@@H](OC(=O)[C@H](O)[C@@H](NC(=O)OC(C)(C)C)c4ccccc4)C[C@@](O)([C@@H](OC(=O)c4ccccc4)[C@H]21)C3(C)C [docetaxel, (2R, 3S)-N-carboxy-3-phenylisoserine, N-tert-butyl ester, 13-ester with 5β-20-epoxy-1, 2α, 4, 7β, 10β, 13α-hexahydroxytax-11-en-9-one 4-acetate 2-benzoate, trihydrate]",COX-2 expression induction,[2],induces COX-2 expression only in human monocytes
same,solubility in water (in words),[3],practically insoluble in water
same,bound to plasma proteins,[4],approximately 94%
same,AUC,[5]; [8],4600 ng·h/mL
same,mean peak plasma level,[5]; [8],3.7 µg/mL
same,steady-state volume of distribution (mean),"[5]; cancer patients, IV",113 L
same,mean population α half-life,[5]; [9],4 min
same,mean population β half-life,[5]; [9],36 min
same,mean population γ half-life,[5]; [9],666 min
"CC(=O)O[C@@]12CO[C@@H]1C[C@H](O)[C@@]1(C)C(=O)[C@H](O)C3=C(C)[C@@H](OC(=O)[C@H](O)[C@@H](NC(=O)OC(C)(C)C)c4ccccc4)C[C@@](O)([C@@H](OC(=O)c4ccccc4)[C@H]21)C3(C)C [unmilled docetaxel (anhydrous), docetaxel]",D50,[1],"175,530 nm"
same,D90,[1],"435,810 nm"
same,mean particle size,[1],"212,060 nm"
TAXOTERE®,maximum tolerated dose (MD),mice,40 mg/kg
paclitaxel,COX-2 expression induction,[6],paclitaxel-induced COX-2 expression
same,COX-2 expression induction,[2],paclitaxel-induced COX-2 expression
same,pharmacokinetic profile (linearity),[7],nonlinear pharmacokinetics

# — patent publication US20060188566A1, “Nanoparticulate formulations of docetaxel and analogues thereof” (Elan Pharma International Limited, priority 2005, published 2006)
